Common to all, as to assay type: cell-based
Experiment [1] relates to SDMA (PRMT5 activity) in HAP1 MTAP-intact cell line. Kind of experiment: SDMA in-cell western assay, HAP1 MTAP-intact. The following applies: Homo sapiens, HAP1, 24 h, SDMA in-cell western, HAP1 MTAP-intact cells, 24 hours compound incubation.
The subject of experiment [2] is HAP1 MTAP-deleted cell line. The experiment is described as follows: Viability assay (CellTiter-Glo), HAP1 MTAP-deleted. The following applies: Homo sapiens, 168 h, HAP1 MTAP-deleted cells, 7 days. The gist of the method: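 HAP1 MTAP-deleted and MTAP-intact cells seeded, then dosed next day (n=3, 0.2% DMSO) and grown 7 days. Viability by CellTiter-Glo luminescence, expressed as % of DMSO control per cell line.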

Experiment [3] deals with SDMA (PRMT5 activity) in HAP1 MTAP-deleted cell line. The experiment is described as follows: SDMA in-cell western assay, HAP1 MTAP-deleted. The conditions noted are these: for IC50 / IC90: Homo sapiens, SDMA in-cell western, HAP1 MTAP-deleted cells, 24 hours compound incubation; for Hap1 MTAP intact/deleted ratio: ratio of SDMA IC50 in HAP1 MTAP-intact to HAP1 MTAP-deleted cell line.

In turn, `CCc1cc(NC(=O)C(=O)N2C[C@@H](C)CC[C@@H]2c2ccc3sc(CC(C)N4CCCC4)nc3c2)cnc1N` (mixture of isomers) [Compound 116, N-(6-amino-5-ethylpyridin-3-yl)-2-((2R,5S)-5-methyl-2-(2-(2-(pyrrolidin-1-yl)propyl)benzo[d]thiazol-5-yl)piperidin-1-yl)-2-oxoacetamide] displayed a half-inhibitory concentration (IC50) in experiment [1] above 0.05 µM. Moreover, the IC50 in experiment [2] was below 0.1 µM. Besides, in experiment [3], the IC50 was below 0.005 µM, the 90% effect concentration (IC90) is below 0.075 µM and the “Hap1 MTAP intact/deleted ratio” value is listed as “A (“A” indicates an IC50 ratio greater than or equal to 30 fold)”.

`COc1ncc(NC(=O)C(=O)N2C[C@@H](C)CC[C@@H]2c2ccc3sc(CC4CCN(C)CC4)nc3c2)cc1C(N)=O` [Compound 20, 2-methoxy-5-(2-((2R,5S)-5-methyl-2-(2-((1-methylpiperidin-4-yl)methyl)benzo[d]thiazol-5-yl)piperidin-1-yl)-2-oxoacetamido)nicotinamide]: the IC50 in experiment [1] was above 0.05 µM. The IC50 in experiment [2] is below 0.1 µM. For the same compound, in experiment [3], the half-maximal inhibitory concentration (IC50) is below 0.005 µM, the concentration for an effect of 90% (IC90) was below 0.075 µM and the “Hap1 MTAP intact/deleted ratio” value is “A (“A” indicates an IC50 ratio greater than or equal to 30 fold)”.

On to `CCc1cc(NC(=O)C(=O)N2C[C@@H](C)CC[C@@H]2c2ccc3ccc(C#N)nc3c2)cnc1N` [Compound 32, N-(6-amino-5-ethylpyridin-3-yl)-2-((2R,5S)-2-(2-cyanoquinolin-7-yl)-5-methylpiperidin-1-yl)-2-oxoacetamide], for which the IC50 in experiment [1] was above 0.05 µM. Moreover, the 50% inhibitory concentration (IC50) in experiment [2] lay in the range of 0.1 to 1 µM. Further, in experiment [3], the half-inhibitory concentration (IC50) lay within 0.005 to 0.05 µM, the IC90 was above 0.125 µM and the “Hap1 MTAP intact/deleted ratio” value is recorded as “A (“A” indicates an IC50 ratio greater than or equal to 30 fold)”.

In experiment [1], `CCc1cc(NC(=O)C(=O)N2C[C@@H](C)CC[C@@H]2c2ccc3c(c2)OC2(CCN(C)CC2)C3)cnc1N` [Compound 31, N-(6-amino-5-ethylpyridin-3-yl)-2-((2R,5S)-5-methyl-2-(1′-methyl-3H-spiro[benzofuran-2,4′-piperidin]-6-yl)piperidin-1-yl)-2-oxoacetamide] had a concentration for half-maximal inhibition (IC50) above 0.05 µM. Moreover, the half-maximal inhibitory concentration (IC50) in experiment [2] fell in the range of 0.1 to 1 µM. In addition, in experiment [3], the half-maximal inhibitory concentration (IC50) lay in the range of 0.005 to 0.05 µM, the concentration for an effect of 90% (IC90) was above 0.125 µM and the “Hap1 MTAP intact/deleted ratio” value is listed as “A (“A” indicates an IC50 ratio greater than or equal to 30 fold)”.

Take `CCc1cc(NC(=O)C(=O)N2C[C@@H](C)CC[C@@H]2c2ccc3sc(CC4(C)CCN(C)CC4)nc3c2)cnc1N` [Compound 6, N-(6-amino-5-ethylpyridin-3-yl)-2-((2R,5S)-2-(2-((1,4-dimethylpiperidin-4-yl)methyl)benzo[d]thiazol-5-yl)-5-methylpiperidin-1-yl)-2-oxoacetamide]: in experiment [1], the IC50 lay in the range of 0.005 to 0.05 µM. For the same compound, the concentration for half-maximal inhibition (IC50) in experiment [2] was below 0.1 µM. Besides, in experiment [3], the concentration for half-maximal inhibition (IC50) is below 0.005 µM, the concentration for an effect of 90% (IC90) is below 0.075 µM and the “Hap1 MTAP intact/deleted ratio” value is “B (“B” indicates an IC50 ratio greater than or equal to 15 fold but lower than 30 fold)”.

With `COc1ncc(NC(=O)C(=O)N2C[C@@H](C)CC[C@@H]2c2ccc3sc([C@@H](C)N(C)C)nc3c2)cc1C(N)=O` [Compound 25, 2-methoxy-5-[[2-oxo-2-[(2R,5S)-5-methyl-2-[2-[(1R)-1-(dimethylamino)ethyl]-1,3-benzothiazol-5-yl]-1-piperidyl]acetyl]amino]pyridine-3-carboxamide], the concentration for half-maximal inhibition (IC50) was above 0.05 µM in experiment [1], below 0.1 µM in experiment [2] and 0.005 to 0.05 µM in experiment [3]. The 90% effect concentration (IC90) in experiment [3] was in the range of 0.075 to 0.125 µM. In addition, in experiment [3], the “Hap1 MTAP intact/deleted ratio” value is on record as “A (“A” indicates an IC50 ratio greater than or equal to 30 fold)”.

Consider `CCc1cc(NC(=O)C(=O)N2C[C@@H](C)CC[C@@H]2c2ccc3sc([C@H]4C[C@H](C)CN(C)C4)nc3c2)cnc1N` (single isomer, unassigned) [Compound 75], for which, in experiment [1], the IC50 is above 0.05 µM. This compound gave an IC50 in experiment [2] below 0.1 µM. In addition, in experiment [3], the IC50 fell in the range of 0.005 to 0.05 µM, the 90% effect concentration (IC90) was below 0.075 µM and the “Hap1 MTAP intact/deleted ratio” value was “B (“B” indicates an IC50 ratio greater than or equal to 15 fold but lower than 30 fold)”.

As to `COc1ncc(NC(=O)C(=O)N2C[C@@H](C)CC[C@@H]2c2ccc3sc([C@]45CCC(C4)N(C)C5)nc3c2)cc1C(N)=O` [Compound 71, 2-methoxy-5-(2-((2R,5S)-5-methyl-2-(2-((4R)-2-methyl-2-azabicyclo[2.2.1]heptan-4-yl)benzo[d]thiazol-5-yl)piperidin-1-yl)-2-oxoacetamido)nicotinamide], the IC50 in experiment [1] is above 0.05 µM. In experiment [2], this compound returned an IC50 below 0.1 µM. Moreover, in experiment [3], the IC50 was below 0.005 µM, the IC90 was below 0.075 µM and the “Hap1 MTAP intact/deleted ratio” value is “B (“B” indicates an IC50 ratio greater than or equal to 15 fold but lower than 30 fold)”.

In experiment [1], `COc1ncc(NC(=O)C(=O)N2C[C@@H](C)CC[C@@H]2c2ccc3sc(CC(C)(C)N(C)C)nc3c2)cc1C(N)=O` [Compound 120, 5-(2-((2R,5S)-2-(2-(2-(dimethylamino)-2-methylpropyl)benzo[d]thiazol-5-yl)-5-methylpiperidin-1-yl)-2-oxoacetamido)-2-methoxynicotinamide] registered an IC50 above 0.05 µM. For the same compound, the half-maximal inhibitory concentration (IC50) in experiment [2] is below 0.1 µM. In experiment [3], the half-inhibitory concentration (IC50) is below 0.005 µM, the IC90 was below 0.075 µM and the “Hap1 MTAP intact/deleted ratio” value is listed as “A (“A” indicates an IC50 ratio greater than or equal to 30 fold)”.

As for `CCc1cc(NC(=O)C(=O)N2C[C@@H](C)CC[C@@H]2c2ccc3sc(C4=CCN(C)CC4)nc3c2)cnc1N` [Compound 28, N-(6-amino-5-ethylpyridin-3-yl)-2-((2R,5S)-5-methyl-2-(2-(1-methyl-1,2,3,6-tetrahydropyridin-4-yl)benzo[d]thiazol-5-yl)piperidin-1-yl)-2-oxoacetamide], the IC50 in experiment [1] fell in the range of 0.005 to 0.05 µM. The compound further gave an IC50 in experiment [2] below 0.1 µM. In addition, in experiment [3], the IC50 was below 0.005 µM, the IC90 was below 0.075 µM and the “Hap1 MTAP intact/deleted ratio” value is given as “A (“A” indicates an IC50 ratio greater than or equal to 30 fold)”.

For `CCc1cc(NC(=O)C(=O)N2C[C@@H](C)CC[C@@H]2c2ccc3sc([C@@H]4CCN(C)C[C@H]4OC)nc3c2)cnc1N` (single isomer, unassigned) [Compound 101], the values for the IC50 in experiment [1], in experiment [2] and in experiment [3] were 0.005 to 0.05 µM, below 0.1 µM and below 0.005 µM, respectively. For the same compound, in experiment [3], the IC90 was below 0.075 µM. Further, the “Hap1 MTAP intact/deleted ratio” value in experiment [3] is “B (“B” indicates an IC50 ratio greater than or equal to 15 fold but lower than 30 fold)”.

Turning to `CCc1cc(NC(=O)C(=O)N2C[C@@H](C)CC[C@@H]2c2ccc3cn([C@H]4CCN(C)C4)nc3c2)cnc1N` [Compound 117, N-(6-amino-5-ethylpyridin-3-yl)-2-((2R,5S)-5-methyl-2-(2-((S)-1-methylpyrrolidin-3-yl)-2H-indazol-6-yl)piperidin-1-yl)-2-oxoacetamide], the half-inhibitory concentration (IC50) in experiment [1] was above 0.05 µM; in experiment [2], below 0.1 µM; in experiment [3], 0.005 to 0.05 µM. The compound further gave a 90% effect concentration (IC90) in experiment [3] below 0.075 µM. Further, the “Hap1 MTAP intact/deleted ratio” value in experiment [3] is “C (“C” indicates an IC50 ratio of less than 15 fold)”.

For the compound `CCc1cc(NC(=O)C(=O)N2C[C@@H](C)CC[C@@H]2c2ccc3cc(C#N)cnc3c2)cnc1N` [Compound 54], the half-inhibitory concentration (IC50) was above 0.05 µM in experiment [1], 0.1 to 1 µM in experiment [2] and 0.005 to 0.05 µM in experiment [3]. In experiment [3], this compound displayed an IC90 above 0.125 µM. Besides, the “Hap1 MTAP intact/deleted ratio” value in experiment [3] was “A (“A” indicates an IC50 ratio greater than or equal to 30 fold)”.

Consider `CCc1cc(NC(=O)C(=O)N2C[C@@H](C)CC[C@@H]2c2ccc3cn([C@@H]4CCN(C)C4)nc3c2)cnc1N` [Compound 112, N-(6-amino-5-ethylpyridin-3-yl)-2-((2R,5S)-5-methyl-2-(2-((R)-1-methylpyrrolidin-3-yl)-2H-indazol-6-yl)piperidin-1-yl)-2-oxoacetamide], for which the IC50 in experiment [1] is 0.005 to 0.05 µM; in experiment [2] it was below 0.1 µM; in experiment [3], below 0.005 µM. Also, the IC90 in experiment [3] is below 0.075 µM. In experiment [3], the “Hap1 MTAP intact/deleted ratio” value is “B (“B” indicates an IC50 ratio greater than or equal to 15 fold but lower than 30 fold)”.

For `CCc1cc(NC(=O)C(=O)N2C[C@@H](C)CC[C@@H]2c2cccc(OCC3CCCN3C)c2)cnc1N` (single isomer, unassigned) [Compound 121], the 50% inhibitory concentration (IC50) in experiment [1] is above 0.05 µM; in experiment [2], below 0.1 µM; in experiment [3], 0.005 to 0.05 µM. This compound also gave a concentration for an effect of 90% (IC90) in experiment [3] below 0.075 µM. Besides, the “Hap1 MTAP intact/deleted ratio” value in experiment [3] was “B (“B” indicates an IC50 ratio greater than or equal to 15 fold but lower than 30 fold)”.

With `COc1ncc(NC(=O)C(=O)N2C[C@@H](C)CC[C@@H]2c2ccc3cn([C@H]4CCN(C)C4)nc3c2)cc1C(N)=O` [Compound 103, 2-methoxy-5-(2-((2R,5S)-5-methyl-2-(2-((S)-1-methylpyrrolidin-3-yl)-2H-indazol-6-yl)piperidin-1-yl)-2-oxoacetamido)nicotinamide], the half-maximal inhibitory concentration (IC50) in experiment [1] was above 0.05 µM; in experiment [2], below 0.1 µM; in experiment [3], below 0.005 µM. The compound further showed an IC90 in experiment [3] below 0.075 µM. Besides, the “Hap1 MTAP intact/deleted ratio” value in experiment [3] is given as “A (“A” indicates an IC50 ratio greater than or equal to 30 fold)”.

Compound `COc1ncc(NC(=O)C(=O)N2C[C@@H](C)CC[C@@H]2c2ccc3sc(C[C@H]4CCN(C)C[C@@H]4C)nc3c2)cc1C(N)=O` (racemic) [Compound 64, 5-(2-((2R,5S)-2-(2-((1,3-dimethylpiperidin-4-yl)methyl)benzo[d]thiazol-5-yl)-5-methylpiperidin-1-yl)-2-oxoacetamido)-2-methoxynicotinamide] showed a 50% inhibitory concentration (IC50) in experiment [1] above 0.05 µM. The same compound had a concentration for half-maximal inhibition (IC50) in experiment [2] below 0.1 µM. Further, in experiment [3], the half-maximal inhibitory concentration (IC50) is below 0.005 µM, the IC90 is below 0.075 µM and the “Hap1 MTAP intact/deleted ratio” value is reported as “A (“A” indicates an IC50 ratio greater than or equal to 30 fold)”.

The values are drawn from US20250171432A1, “COMPOUNDS AND METHODS OF USE” (Tango Therapeutics, Inc., priority 2022, published 2025).
